Assay results reported in patent publication US11530206B2, “Phenylaminopyrimidine amide autophagy inhibitors and methods of use thereof” (Deciphera Pharmaceuticals, LLC, priority 2019, dated 2022).

What follows are compounds tested against T1, ULK1 kinase (Homo sapiens, UniProt O75385) (assay: Biochemical assay for ULK1.2 (coupled pyruvate kinase/lactate dehydrogenase assay)). Settings: 19 nM ULK1 (residues 1-314, His tag), myelin basic protein, 1 mM ATP.
T1 construct: purchased Eurofins 14-959
T1 sequence (O75385 with tags, fused parts or gaps): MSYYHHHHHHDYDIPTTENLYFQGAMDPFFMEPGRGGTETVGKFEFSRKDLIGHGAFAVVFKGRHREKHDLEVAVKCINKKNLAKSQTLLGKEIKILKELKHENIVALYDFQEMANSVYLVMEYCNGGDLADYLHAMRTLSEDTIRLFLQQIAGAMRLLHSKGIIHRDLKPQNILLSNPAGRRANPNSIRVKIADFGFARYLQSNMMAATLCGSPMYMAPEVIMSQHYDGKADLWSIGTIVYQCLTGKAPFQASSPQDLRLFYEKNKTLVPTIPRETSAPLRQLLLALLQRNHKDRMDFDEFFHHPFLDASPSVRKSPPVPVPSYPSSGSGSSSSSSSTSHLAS
In short: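 Coupled assay followed the fall in absorbance at 340 nm continuously for 6 hours at 30 °C, with compounds serially diluted at 1% DMSO final. Rates from the 2–3 h window were normalised to no-compound and reference-inhibitor controls. IC50 came from a four-parameter sigmoidal fit.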
Work on `CCc1cc(N2CCN(C)CC2)ccc1Nc1ncc(Br)c(NCCCN2CCOCCC2=O)n1` [Example 76] yielded an IC50 of 1 to 25 nM.
Compound `CN1CCN(c2ccc(Nc3ncc(Cl)c(NCCCN4CCCOCC4=O)n3)c(C3CC3)c2)CC1` [Example 55] has an IC50 of 100 to 500 nM.
Work on `CN1CCN(c2ccc(Nc3ncc(C(F)(F)F)c(NCCCN4CCCCC4=O)n3)c(C3CC3)c2)CC1` [Example 14] yielded an IC50 of 1 to 25 nM.
Work on `CN1CCN(c2ccc(Nc3ncc(C(F)(F)F)c(NCCCN4CCCOCC4=O)n3)c(C3CC3)c2)CC1` [Example 52] yielded an IC50 of 1 to 25 nM.
In the case of `CCc1cc(N2CCN(C)CC2)ccc1Nc1ncc(C(F)(F)F)c(NCCCN2CCCOC2=O)n1` [Example 39], the IC50 is reported as 1 to 25 nM.
With `CN1CCN(c2ccc(Nc3ncc(C(F)(F)F)c(NCCCN4CCOCCC4=O)n3)c(C3CC3)c2)CC1` [Example 70] the IC50 was 1 to 25 nM.
